Data from patent US6274619A, “Amidino substituted tetrahydrobenzo thiophene or furan derivatives and their use as urokinase inhibitors” (Fujisawa Pharmaceutical Co., Ltd., priority 1996, dated 2001).
Counter-ions that a name gives are not always drawn.

Molecular target: T1, human high molecular weight urokinase (Homo sapiens, UniProt P00749)
T1 construct: purchased Fujisawa Pharmaceutical Co., Ltd
Test: Urokinase inhibiting effect (chromogenic substrate S-2288)
Format: biochemical
Settings: 25 IU/ml urokinase, substrate S-2288, pH 7.5, 37° C., 30 minutes, A405
Experimental: Now in order to show the utility of the object compound (I) and pharmaceutically acceptable salts, the test datum on urokinase inhibiting effect of the representative compound of the compound (I) of this invention is shown in the following.
Test Compound was incubated at desired concentrations with 25 International Units (IU)/ml human high molecular weight urokinase (Fujisawa Pharmaceutical Co., Ltd.) and urokinase substrate (S-2288, H-D-Isoleucyl-L-prolyl-L-arginine-p-nitroaniline dihydrochloride; Chromagenix, Sweden; Japan distributors Daiichikagakuyakuhin Co., Ltd.) in a 100 μl final volume of 50 mM Tris, 100 mM NaCl, 1 mM Na2 EDTA, 0.01% (v/v) polyoxyethylenesorbitan monooleate (Tween 80), pH 7.5 (Buffer Z). Incubations were carried out at 37° C. for 30 minutes. Color was quantitated by measuring absorbance at 405 nm (A405) using EL312 Automated Microplate Reader.

`CCCC=C1CCCc2sc(C(=N)N)cc21` [Compound A, 2-Amidino-4-n-butylidene-4,5,6,7-tetrahydrobenzo[b]thiophene hydrochloride] showed an IC50 of 0.47 µM.
